What all share (format): functional
One test has as its system Enterococcus faecalis. The test can be described thus: Antibacterial activity Enterococcus faecalis ATCC 29212 after 16 to 20 hr by broth microdilution method. In general terms: Broth dilution looks for growth in wells or tubes with falling amounts of substance.
The test system of a further test is Candida albicans. The test can be described thus: Antifungal activity Candida albicans ATCC 90028 after 48 hr by broth microdilution method. Conditions: ATCC 90028, 48 h.
In another test the test system is Pseudomonas aeruginosa. In words: Antibacterial activity Pseudomonas aeruginosa ATCC 27853 after 16 to 20 hr by broth microdilution method.
For the next test, the system named is Escherichia coli. In words: Antibacterial activity Escherichia coli ATCC 25922 after 16 to 20 hr by broth microdilution method.
The subject of the next test is Staphylococcus aureus. In words: Antibacterial activity Staphylococcus aureus […] after 16 to 20 hr by broth microdilution method.

Values after ≈ are worked out from the molar mass of the structure shown.

The MIC is the smallest concentration in the dilution series that meets the test's criterion for growth inhibition. A low value points to greater potency. For `S=C1COc2ccccc2CN1c1ccc(Br)cc1`, the MIC against Enterococcus faecalis was determined as 12.5 µg/mL (≈ 37.4 µM); against Candida albicans, 100 µg/mL (≈ 299 µM); against Pseudomonas aeruginosa, 25 µg/mL (≈ 74.8 µM); with Escherichia coli, 100 µg/mL (≈ 299 µM); in the test with Staphylococcus aureus, 100 µg/mL (≈ 299 µM).

On to `S=C1COc2ccccc2CN1c1ccccc1`, for which the MIC was determined as 100 µg/mL (≈ 392 µM) in the test on Enterococcus faecalis; 800 µg/mL (≈ 3130 µM) in the test with Candida albicans; 100 µg/mL (≈ 392 µM) with Pseudomonas aeruginosa; 200 µg/mL (≈ 783 µM) against Escherichia coli; 800 µg/mL (≈ 3130 µM) in the test on Staphylococcus aureus.

`COc1ccc(N2Cc3ccccc3OCC2=S)cc1`: the MIC with Enterococcus faecalis was 50 µg/mL (≈ 175 µM); against Candida albicans, 800 µg/mL (≈ 2800 µM); in the test on Pseudomonas aeruginosa, 100 µg/mL (≈ 350 µM); against Escherichia coli it was 200 µg/mL (≈ 701 µM); against Staphylococcus aureus, 400 µg/mL (≈ 1400 µM).

With `Cc1cccc(N2Cc3ccccc3OCC2=S)c1`, the MIC against Enterococcus faecalis was found to be 50 µg/mL (≈ 186 µM); in the test with Candida albicans it was 800 µg/mL (≈ 2970 µM); with Pseudomonas aeruginosa, 100 µg/mL (≈ 371 µM); against Escherichia coli it was 400 µg/mL (≈ 1480 µM); against Staphylococcus aureus, 800 µg/mL (≈ 2970 µM).

Consider `O=[N+]([O-])c1ccc(N2Cc3ccccc3OCC2=S)cc1`, for which the MIC in the test on Enterococcus faecalis was 50 µg/mL (≈ 166 µM); in the test on Candida albicans, 800 µg/mL (≈ 2660 µM); in the test on Pseudomonas aeruginosa, 50 µg/mL (≈ 166 µM); in the test on Escherichia coli, 200 µg/mL (≈ 666 µM); in the test on Staphylococcus aureus, over 1600 µg/mL.

As for `O=C(O)c1cn(C2CC2)c2cc(N3CCNCC3)c(F)cc2c1=O` [CIPROFLOXACIN], the MIC with Enterococcus faecalis amounted to 0.25 µg/mL (≈ 0.754 µM); with Escherichia coli it was 0.04 µg/mL (≈ 0.121 µM); in the test on Staphylococcus aureus it was 0.25 µg/mL (≈ 0.754 µM).

For the compound `Cc1ccc(N2Cc3ccccc3OCC2=S)cc1`, the MIC worked out at 25 µg/mL (≈ 92.8 µM) against Enterococcus faecalis; 200 µg/mL (≈ 742 µM) against Candida albicans; 25 µg/mL (≈ 92.8 µM) with Pseudomonas aeruginosa; 200 µg/mL (≈ 742 µM) against Escherichia coli; 200 µg/mL (≈ 742 µM) in the test with Staphylococcus aureus.

As for `CC1(C)S[C@@H]2[C@H](NC(=O)[C@H](N)c3ccccc3)C(=O)N2[C@H]1C(=O)O` [AMPICILLIN], the MIC in the test on Enterococcus faecalis was determined as 0.78 µg/mL (≈ 2.23 µM); against Escherichia coli, 6.25 µg/mL (≈ 17.9 µM); in the test on Staphylococcus aureus it was 0.78 µg/mL (≈ 2.23 µM).

Turning to `CN(C)c1ccc(N2Cc3ccccc3OCC2=S)cc1`, the MIC came out at 25 µg/mL (≈ 83.8 µM) in the test with Enterococcus faecalis; 800 µg/mL (≈ 2680 µM) in the test with Candida albicans; 100 µg/mL (≈ 335 µM) in the test with Pseudomonas aeruginosa; 200 µg/mL (≈ 670 µM) against Escherichia coli; 400 µg/mL (≈ 1340 µM) against Staphylococcus aureus.

In the case of `O=[N+]([O-])c1cccc(N2Cc3ccccc3OCC2=S)c1`, the MIC in the test with Enterococcus faecalis worked out at 25 µg/mL (≈ 83.2 µM); with Candida albicans, 200 µg/mL (≈ 666 µM); in the test on Pseudomonas aeruginosa, 25 µg/mL (≈ 83.2 µM); with Escherichia coli it was 100 µg/mL (≈ 333 µM); with Staphylococcus aureus it was 200 µg/mL (≈ 666 µM).

Regarding `COc1cccc(N2Cc3ccccc3OCC2=S)c1`, the MIC was 25 µg/mL (≈ 87.6 µM) against Enterococcus faecalis; 100 µg/mL (≈ 350 µM) with Candida albicans; 50 µg/mL (≈ 175 µM) against Pseudomonas aeruginosa; 100 µg/mL (≈ 350 µM) against Escherichia coli; 200 µg/mL (≈ 701 µM) against Staphylococcus aureus.

With `FC(F)(F)c1cccc(N2Cc3ccccc3OCC2=S)c1`, the MIC with Enterococcus faecalis worked out at 25 µg/mL (≈ 77.3 µM); against Candida albicans, 400 µg/mL (≈ 1240 µM); against Pseudomonas aeruginosa, 50 µg/mL (≈ 155 µM); in the test on Escherichia coli, 100 µg/mL (≈ 309 µM); against Staphylococcus aureus, 400 µg/mL (≈ 1240 µM).

Take `S=C1COc2ccccc2CN1c1ccc(Cl)cc1`: the minimum inhibitory concentration (MIC) turned out to be 25 µg/mL (≈ 86.3 µM) against Enterococcus faecalis; 800 µg/mL (≈ 2760 µM) in the test on Candida albicans; 100 µg/mL (≈ 345 µM) against Pseudomonas aeruginosa; 400 µg/mL (≈ 1380 µM) in the test with Escherichia coli; 400 µg/mL (≈ 1380 µM) in the test with Staphylococcus aureus.

Consider `OC(Cn1cncn1)(Cn1cncn1)c1ccc(F)cc1F` [FLUCONAZOLE], for which the MIC in the test on Candida albicans was 0.25 µg/mL (≈ 0.816 µM).

As to `S=C1COc2ccccc2CN1c1cccc(Cl)c1`, the MIC in the test with Enterococcus faecalis is 100 µg/mL (≈ 345 µM); against Candida albicans, 800 µg/mL (≈ 2760 µM); in the test on Pseudomonas aeruginosa it was 200 µg/mL (≈ 690 µM); with Escherichia coli it was 200 µg/mL (≈ 690 µM); in the test on Staphylococcus aureus it was 400 µg/mL (≈ 1380 µM).

For `S=C1COc2ccccc2CN1c1ccc(I)cc1`, the MIC stood at 50 µg/mL (≈ 131 µM) in the test with Enterococcus faecalis; 800 µg/mL (≈ 2100 µM) with Candida albicans; 50 µg/mL (≈ 131 µM) with Pseudomonas aeruginosa; 100 µg/mL (≈ 262 µM) in the test on Escherichia coli; 400 µg/mL (≈ 1050 µM) with Staphylococcus aureus.

For `Fc1ccc(N2Cc3ccccc3OCC2=S)cc1`, the MIC came to 50 µg/mL (≈ 183 µM) in the test on Enterococcus faecalis; 400 µg/mL (≈ 1460 µM) in the test with Candida albicans; 100 µg/mL (≈ 366 µM) in the test on Pseudomonas aeruginosa; 100 µg/mL (≈ 366 µM) with Escherichia coli; 800 µg/mL (≈ 2930 µM) in the test on Staphylococcus aureus.

For the origin of these results see ChEMBL document CHEMBL3045204, “Synthesis and structureantibacterial activity relationship studies of 4-substituted phenyl-4,5-dihydrobenzo[f][1,4]oxazepin-3(2H)-thiones” (2011).
